Experimental data: publication PMC5931107, “Clinical pharmacodynamic/exposure characterisation of the multikinase inhibitor ilorasertib (ABT-348) in a phase 1 dose-escalation trial” (British Journal of Cancer, 2018)
Like-named read-outs stand apart in the source and are kept apart here. Marks after values point to notes of the source that are not given here.

Key:
[1] = test system: Aurora C; design: method as in PMID 22935731; conditions: 1 mM ATP; read-out: Biochemical IC50 (95% confidence limits); cited from earlier work
[2] = test system: FLT-3; design: method as in PMID 22935731; conditions: FLT-3 constitutively phosphorylated in SEM cells, 60 min exposure; read-out: Cellular PD marker IC50 (95% confidence limits); cited from earlier work
[3] = Plasma pharmacokinetics, Arm III (i.v. infusion), phase 1 trial; assay type: in vivo, human; conditions: for half-life: read-out: t1/2 (harmonic mean) (converted)
Experimental: Pharmacokinetics of ilorasertib were evaluated in the dose-escalation cohort on blood samples that were collected on cycle 1 days 1 and 15. Parameters determined: Cmax, time to Cmax (Tmax), terminal phase elimination half-life (t1/2), clearance, apparent oral clearance (CL/F), and area under the plasma concentration-time curve from time 0 to time of last measurable concentration (AUCt) and from time 0 to infinity (AUC∞). For Arm I, blood samples were collected prior to dosing and at 0.5, 1, 2, 3, 4, 6, 8, 10 or 12, and 24 h after dosing on cycle 1 days 1 and 15; of note, for institutions not able to collect the 10- or 12-h post-dose sample, the 24-h sample was replaced with 22-h and 28-h post-dose samples. In Arm II, for the first dose, blood samples were collected pre-dose and at 1, 2, 3, and 4 h post-dose on cycle 1 days 1 and 15; for the second dose, samples were collected pre-dose and at 1, 2, 3, 4, 18, and 24 h after second dose on cycle 1 days 1 and 15. In Arm III, blood samples were collected prior to infusion, at 1 h 55 min (just before end of infusion), and at 0.5, 1, 2, 4, 6, 8, 10, and 24 h after end of infusion on cycle 1 days 1 and 15; here also, for institutions not able to collect the 8-h or 10-h after-end-of-infusion samples, the 24-h sample was replaced with 22-h and 28-h post-dose samples. The liquid chromatography (LC)-mass spectrometry (MS)/MS method was developed and validated in the Bioanalysis Department of AbbVie. Fifty microliter of human plasma (K2EDTA as anticoagulant) was fortified with 300 μL of deuterium-stable labelled internal standard and mixed well. A HybridSPE precipitation plate (50 mg/96 wells, Supelco Analytical, Munich, Germany) was used to directly load and elute (under slight vacuum) the fortified samples into a clean collection plate. Samples were dried before reconstitution with 100 μL of 20/80 (v/v) acetonitrile/water, and injected for LC-MS/MS analysis. A Halo C8 (Wilmington, DE, USA; 2.7 μm, 2.1 × 30 mm) was used on an Agilent 1290 Infinity UPLC pump (Agilent Technologies, Santa Clara, CA) to carry out the separation. An isocratic condition with 25/75/0.1 (v/v/v) acetonitrile/water/98% formic acid was used as the mobile phase. The flow rate was set to be 0.6 mL/min. An MPS 3 C ([…] Ruhr, Germany) autosampler was used to introduce samples onto the UPLC system. An API 4000 mass spectrometer (Applied Biosystems, Foster City, CA) was used in the multiple reactions monitoring mode for the detection and quantitation of analyte. Descriptive statistics were used for demographic variables. The numbers and percentages of patients with treatment-emergent AEs (TEAEs) were tabulated using the Medical Dictionary for Regulatory Activities version 16.0 system organ class and preferred term, and further classified according to CTCAE version 4.0 criteria. The safety data set included all patients who received one or more doses of ilorasertib. The pharmacokinetic data set included all patients who received one or more doses of ilorasertib and had one or more pharmacokinetic samples. Values for pharmacokinetic parameters were determined using non-compartmental methods, with data analysed separately for each arm. A repeated measures analysis was performed for Tmax and dose-normalised Cmax, AUCt, and AUC∞. The model included random effects for patient and fixed effects for dose level, day, and the interaction of dose level and day. To assess effects of exposure on pharmacodynamic biomarkers, Cmax was employed as the directly measured marker of exposure for the rapid changes in DBP and PlGF pre-steady-state, while AUC∞ reflected exposure variability at the time of post-multiple-dose skin biopsy. Descriptive statistics were used to summarise ECOG performance status. The efficacy data set included all patients who received one or more doses of ilorasertib.

[4] = test system: VEGFR2; design: method as in PMID 22935731; conditions: 1 mM ATP; read-out: Biochemical IC50 (95% confidence limits); cited from earlier work
[5] = test system: PDGFR-β; design: method as in PMID 22935731; conditions: PDGFR-β cellular phosphorylation, ligand stimulated; read-out: Cellular PD marker IC50 (95% confidence limits); cited from earlier work
[6] = Arm III i.v. infusion 8 mg, day 1, N=4
[7] = Arm III i.v. infusion 8 mg, day 15, N=4
[8] = Arm III i.v. infusion 16 mg, day 1, N=1
[9] = Arm III i.v. infusion 16 mg, day 15, N=1
[10] = Arm III i.v. infusion 32 mg, day 1, N=2, mean (individual)
[11] = Arm III i.v. infusion 32 mg, day 15, N=2, mean (individual)
[12] = Arm III i.v. infusion all doses, day 1, N=7
[13] = Arm III i.v. infusion all doses, day 15, N=7
[14] = human, plasma, iv, 8 mg, Arm III i.v. infusion 8 mg, day 1, N=3
[15] = human, plasma, iv, 8 mg, Arm III i.v. infusion 8 mg, day 15, N=3
[16] = human, plasma, iv, 16 mg, Arm III i.v. infusion 16 mg, day 1, N=1
[17] = human, plasma, iv, 16 mg, Arm III i.v. infusion 16 mg, day 15, N=1
[18] = human, plasma, iv, 32 mg, Arm III i.v. infusion 32 mg, day 1, N=2, mean (individual)
[19] = human, plasma, iv, 32 mg, Arm III i.v. infusion 32 mg, day 15, N=2, mean (individual)
[20] = human, plasma, iv, Arm III i.v. infusion all doses, day 1, N=6
[21] = human, plasma, iv, Arm III i.v. infusion all doses, day 15, N=6

Nc1ncc(-c2cnn(CCO)c2)c2scc(-c3ccc(NC(=O)Nc4cccc(F)c4)cc3)c12 [ilorasertib, Ilorasertib]
IC50 [1]: 1 nM
AUC∞/dose ([3]; Arm III i.v. infusion 8 mg, day 1, N=3): 273 ± 38.5^b ng•h/mL/mg
AUCt/dose [3, 6]: 185 ± 42.9 ng·h/mL/mg
Cmax/dose [3, 6]: 29.3 ± 10.3 ng/mL/mg
AUC∞/dose ([3]; Arm III i.v. infusion 8 mg, day 15, N=3): 360 ± 249^b ng•h/mL/mg
AUCt/dose [3, 7]: 219 ± 71.5 ng·h/mL/mg
Cmax/dose [3, 7]: 30.8 ± 13.3 ng/mL/mg
AUCt/dose [3, 8]: 119 ng·h/mL/mg
AUC∞/dose [3, 8]: 152 ng·h/mL/mg
Cmax [3, 8]: 0.37 µg/mL
Cmax/dose [3, 8]: 22.9 ng/mL/mg
AUCt/dose [3, 9]: 190 ng·h/mL/mg
AUC∞/dose [3, 9]: 215 ng·h/mL/mg
Cmax [3, 9]: 0.74 µg/mL
Cmax/dose [3, 9]: 46 ng/mL/mg
AUCt/dose [3, 10]: 265 (390, 139) ng•h/mL/mg
AUC∞/dose [3, 10]: 287 (424, 150) ng•h/mL/mg
Cmax [3, 10]: 1.31 (1.69, 0.94) μg/mL
Cmax/dose [3, 10]: 41.0 (52.8, 29.2) ng/mL/mg
AUCt/dose [3, 11]: 228 (304, 153) ng•h/mL/mg
AUC∞/dose [3, 11]: 263 (358, 168) ng•h/mL/mg
Cmax [3, 11]: 1.37 (1.85, 0.88) μg/mL
Cmax/dose [3, 11]: 42.7 (57.8, 27.6) ng/mL/mg
AUC∞/dose ([3]; Arm III i.v. infusion all doses, day 1, N=6): 258 ± 104^d ng•h/mL/mg
AUCt/dose [3, 12]: 198 ± 93.7 ng·h/mL/mg
Cmax/dose [3, 12]: 31.8 ± 12.0 ng/mL/mg
AUC∞/dose ([3]; Arm III i.v. infusion all doses, day 15, N=6): 303 ± 180^d ng•h/mL/mg
AUCt/dose [3, 13]: 217 ± 68.0 ng·h/mL/mg
Cmax/dose [3, 13]: 36.4 ± 14.7 ng/mL/mg
AUC(0-inf) [3, 14]: 2190 ± 310 ng·h/mL
clearance [3, 14]: 61.8 mL/min
half-life [3, 14]: 8.5 ± 4.1 h
AUC(0-t) ([3]; human, plasma, iv, 8 mg, Arm III i.v. infusion 8 mg, day 1, N=4): 1480 ± 340 ng·h/mL
Cmax ([3]; human, plasma, iv, 8 mg, Arm III i.v. infusion 8 mg, day 1, N=4, read-out: Cmax): 0.23 ± 0.08 µg/mL
AUC(0-inf) [3, 15]: 2880 ± 1990 ng·h/mL
clearance [3, 15]: 60.2 mL/min
AUC(0-t) ([3]; human, plasma, iv, 8 mg, Arm III i.v. infusion 8 mg, day 15, N=4): 1750 ± 570 ng·h/mL
Cmax ([3]; human, plasma, iv, 8 mg, Arm III i.v. infusion 8 mg, day 15, N=4, read-out: Cmax): 0.25 ± 0.11 µg/mL
AUC(0-inf) [3, 16]: 2440 ng·h/mL
AUC(0-t) [3, 16]: 1910 ng·h/mL
clearance [3, 16]: 109 mL/min
AUC(0-inf) [3, 17]: 3450 ng·h/mL
AUC(0-t) [3, 17]: 3040 ng·h/mL
clearance [3, 17]: 77.3 mL/min
half-life [3, 17]: 9.6 h
AUC(0-inf) [3, 18]: 9180 ng·h/mL
AUC(0-t) [3, 18]: 8460 ng·h/mL
clearance [3, 18]: 75.2 mL/min
half-life [3, 18]: 9.3 h
AUC(0-inf) [3, 19]: 8410 ng·h/mL
AUC(0-t) [3, 19]: 7300 ng·h/mL
clearance [3, 19]: 73 mL/min
clearance [3, 20]: 74.2 mL/min
half-life [3, 20]: 9.1 ± 3.3 h
clearance [3, 21]: 67.3 mL/min
half-life [3, 21]: 12.1 ± 4.4 h
Tmax ([3]; human, plasma, iv, Arm III i.v. infusion 8 mg, day 1, N=4): 2 ± 0.2 h
Tmax ([3]; human, plasma, iv, Arm III i.v. infusion all doses, day 1, N=7): 2 ± 0.2 h
IC50 [4]: 2 nM
IC50 [5]: 11 nM
